How the values were obtained:
[1] = test system: rat model of short bowel syndrome; experiment: Rat model of SBS: histology, villus height and crypt depth; type: in vivo
Experimental: (§1) Animal treatment: Animals were obtained from the Rappaport Faculty of Medicine (Technion, Haifa, Israel). Male rats weighing 240-260 g were kept in individual stainless steel cages at constant temperature and humidity, and a 12-hour light-dark cycle was maintained. Rats were fasted 12 hours prior to the experiment with free access to water. Animals underwent one of two surgical procedures: bowel transection and re-anastomosis or 75% bowel resection and anastomosis. General anesthesia was induced with Pentobarbital (IP 40 mg/kg). Using sterile techniques, the abdomen was opened using a midline incision. In sham rats, simple bowel transection and end-to-end re-anastomosis was performed 15 cm proximal to ileo-cecal junction. In SBS animals, small bowel was resected from a point 5 cm distal to the ligament of Treitz to a point 10 cm proximal to the ileo-cecal junction. Bowel continuity was restored by end-to-end anastomosis using 5-0 Vicryl interrupted sutures. For all operations, the abdominal cavity was closed in two layers with a running suture of 3-0 Dexon. Prior to closure of the abdomen, the rats were resuscitated with a 3 ml intraperitoneal injection of warm normal saline. Rats were fasted for 24 hours but were allowed free access to water.
(§2) Group C—SBS-Insulin (SBS-INS, n=13) rats underwent bowel resection and were fed regular chow diet and water containing insulin (ACTRAPID insulin, NOVO NORDISK, Denmark) at concentration of 1 u/ml. Food and fluid intake of animals were monitored as well as weight for a period of 14 days following treatment after which the animals were sacrificed following intraperitoneal injection of pentobarbital (75 mg/kg).
Segments of small bowel were fixed for 24 hours in 10% formalin and processed into standard paraffin blocks. Five-micron tissue slices stained with hematoxylin-eosin. The sections were studied microscopically using a micrometer eyepiece. Histological images were loaded on a 760×570 pixels resolution buffer using a computerized image analysis system composed of a trichip RGB video-camera (Sony, Japan), installed on a light microscope (Zeiss, Germany) and attached to an IBM compatible personal computer (Pentium III, MMX, 450 mhz, 125 MB RAM), equipped with a frame grabber. […] The villus height and crypt depth were measured using the Image Pro Plus 4 image analysis software (Media Cybernetics, Baltimore, Md., USA). Ten villi and crypts in each section were measured and the mean reading was recorded in microns.

[2] = test system: rat model of short bowel syndrome; experiment: Rat model of SBS: body weight and intestinal adaptation parameters (bowel circumference, bowel and mucosal weight, mucosal DNA and protein); type: in vivo
Experimental: as §1
Experimental design: Forty rats were randomly assigned to one of three groups:
Group A—sham-rats underwent bowel transection (sham, n=14) and than fed with regular chow diet.
Group B—SBS-animals underwent bowel resection (SBS, n=13) and than fed regular chow diet.
as §2
Intestinal adaptation parameters: The small bowel was rapidly removed, rinsed with cold isotonic saline and divided into two segments: jejunum proximal to anastomosis and terminal ileum. Each segment was weighed, cut longitudinally, bowel circumference was measured in three equidistant points as described by Dowling [Dowling R H, Booth C C, 1967, Clin Sci; 32: 139-149] and the mean circumference was calculated. Mucosa was scraped using a glass slide, collected and weighed. Bowel and mucosal weight was calculated per cm of bowel length per 100 g of body weight as described previously [Sukhotnik I, et al., 2002, J Surg Res., December; 108(2):235-42]. Although bowel length may change due to spasm or bowel distension, the calculation per unit of bowel length is considered to be the gold standard in describing structural changes in intestine. DNA and protein were extracted using TRIzol reagent (Rhenium LTD, Jerusalem). The DNA concentrations were recorded in a spectrophotometer and calculated per cm of bowel length. Final protein concentration was measured spectrophotometrically using a commercially available kit (Bio-Rad, Protein Assay) and was calculated per cm of bowel length.
Statistical analysis: The data are expressed as the mean±SEM. A paired Student's t-test and the non-parametric Kruskal-Wallis ANOVA test were used as indicted. p<0.05 was considered statistically significant.

[3] = SBS rats, oral insulin, vs SBS-untreated
[4] = SBS-insulin rats vs SBS-untreated, 14 days, p<0.05
[5] = SBS rats, oral insulin 1 u/ml in water, 14 days, vs SBS-untreated, p<0.05
[6] = SBS rats, oral insulin supplementation (summary)

Substance: insulin
- villi height in jejunum [1, 3]: not associated with an increase
- increase in ileal crypt depth [1, 4]: 40%
- increase in ileal villus height [1, 4]: 15%
- increase in jejunal crypt depth [1, 4]: 15%
- additional increase in ileal overall bowel weight [2, 5]: 40%
- additional increase in jejunal mucosal weight [2, 5]: 33%
- additional increase in jejunal overall bowel weight [2, 5]: 18%
- increase in ileal mucosal DNA content [2, 5]: almost two-fold increase
- increase in ileal mucosal protein content [2, 5]: two-fold increase
- increase in ileal mucosal weight [2, 5]: almost two fold increase
- increase in mucosal weight in the remaining segments [2, 6]: 30-200%
- increase in overall bowel weight in the remaining segments [2, 6]: 20-50%
- increase in bowel diameter ([2]; SBS rats, oral insulin supplementation, remaining segments (summary)): approximately 10%
- mucosal DNA in jejunum [2, 3]: not associated with an increase
- mucosal protein in jejunum [2, 3]: not associated with an increase
- body weight gain ([2]; SBS-INS rats (insulin 1 u/ml in water) vs SBS-nontreated, day 7 through 14, p<0.05): gained weight at greater rate
- jejunal and ileal bowel circumference ([2]; SBS-insulin rats vs SBS-untreated, 14 days, insulin 1 u/ml in water): additional increase
